“Also recorded” adds a separate entry of the source. Where only a bound is given, the exact number is not on record here.

Data on six molecules can be found in patent publication US12241084B2, “Methods for efficient generation of GABAergic interneurons from pluripotent stem cells” (The McLean Hospital Corporation, priority 2013, dated 2025).

Assay [1] relates to H9 cells. The assay is described as follows: MGE derivation from differentiating hPSCs (Nkx2.1 immunocytochemistry, cell counting, FACS). It is filed as cell-based, human. To be noted: for MGE specification: treatment starting at day 0, flow cytometry; for Nkx2.2+/total cells: n=4. Here is the method:
Human PSC cells (H9 ESCs (WA09, WiCell, Madison, WI, passage 45-55), H7 ESC (WA07, WiCell, passage 41-51) and iPSC2497 (a kind gift from Dr. Fred Gage, [14], passage 30-40) were maintained on Matrigel (BD, San Hose, CA) in mTeSR media (Invitrogen, Calsbad, CA) with 10 ng/ml bFGF (Peprotech, Rocky Hill, NJ), and passaged using Dispase (Stem Cell Technologies, Vancouver, BC, Canada). For differentiation, PSCs were trypsinized and grown as floating aggregates in low adherent flasks in KSR media (20% knockout serum replacement, DMEM, 2 mM L-glutamine and 10 μM β-mercaptoethanol (all from Invitrogen)). Rock inhibitor (Y-27632, 10 μM, Tocris, Bristol, United Kingdom) was added on the first day of differentiation. After two weeks of floating culture, cells were transferred to polyornithine (PLO; […]; Sigma, St. Louis, MO) and fibronectin (FN; […]; Sigma, St. Louis, MO) coated surfaces. For neural induction, cells were treated with LDN193189 (100 nM, Stemgent, Cambridge, MA) from d0 to d14 and with SB431542 (10 μM, Tocris) from d0 to d7 [25]. For MGE induction, cells were treated with IWP2 (5 μM, EMD Millipore) from d0 to d7, with SAG (0.1 µM, EMD Millipore) from d0 to d21, and with FGF8 (100 ng/ml, Peprotech) from d8 to d21. After 3 weeks of differentiation, cells were trypsinized and droplets of 10,000 cells/μl transferred to PLO/FN-coated coverslips in differentiation media (N3 media with 10 ng/ml GDNF (Peprotech), 10 ng/ml BDNF (Peprotech) and 2.5 μM DAPT (Tocris)) for further differentiation and maturation.
Differentiated cells were trypsinized and fixed in Fix/Perm solution (BD) for 30 min., and incubated with blocking buffer (PBS with 0.1 mg/ml BSA and 0.1% Saponin (both from Sigma, St. Louis, MO)) for 10 minutes. Blocked cells were incubated with primary antibody (anti-Nkx2.1; Epitomics) in blocking buffer for 30 minutes. After washing with PBS, Alexa 647-conjugated secondary antibodies (Invitrogen) were added (1:1000) and incubated for another 15 minutes. Some samples were incubated only with secondary antibody as control. After washing with PBS, cells were suspended in blocking buffer and analyzed using a FACSAria (BD Biosciences, San Jose, CA). Flowjo (Tree Star, Ashland, Or) software was used to analyze raw data. Ten thousand cells were used per analysis.
For immunofluorescence staining, fixed cells or tissue sections were incubated with blocking buffer (PBS, 10% normal donkey serum (NDS)) containing 0.1% Triton for 10 minutes. Cells were then incubated overnight at 4° C. with primary antibodies diluted in PBS containing 2% NDS. The primary antibody list can be found in table 1. After rinsing with PBS, samples were incubated with fluorescent dye-labeled secondary antibodies (Alexa 488- Alexa 594- or Alexa 647-labeled IgG; Invitrogen, Carlsbad, CA) in PBS containing 2% NDS for 30 minutes at room temperature. After rinsing with PBS, Hoechst 33342 ([…]) was used for counterstaining, and coverslips/tissues sections were mounted onto slides in Mowiol 4-88 (Calbiochem, Gibbstown, NJ). Confocal analysis was performed using an Olympus DSU Spinning Disc Confocal on an IX81 inverted microscope (Center Valley, PA).
Cells were counted using the StereoInvestigator image capture equipment and software (Microbright Field, Williston, VT). For counting of cells on cover slips, an optical fractionator probe was used with a 500 μm×500 µm grid size and 100 μm×[…] counting frame (>40 counting sites with >1000 total cells counted per sample) at 40× magnification. Coverslips from 3-4 independent differentiations were used for analysis. For statistical analysis, we performed t-test (alpha=0.05) comparing control vs. sample using Prism6 software (Graph Pad).
A general note: In flow cytometry, cells or beads pass a laser one at a time.

Assay [2] concerns AMPA/kainate-type glutamate receptors. The assay is described as follows: NBQX inhibition of sEPSC in grafted cells. The settings on record: 10 μM NBQX. Also noted: species or system human.
In the next assay the test system is differentiating ES cells. The assay is described as follows: Real time PCR analysis of differentiating ES cells. In kind it is cell-based, human. As to the method:
Total RNA was prepared using Trizol (Invitrogen) and Purelink RNA mini kit (Invitrogen). cDNA from total RNA was generated using the SuperScript™ II RT (Invitrogen, Carlsbad, CA) and oligo (dT) primers. For quantitative analysis of the expression level of mRNAs, real-time PCR analyses were performed using the DNA engine Opticon™ (MJ Research, Waltham, MA) and SYBR green I (Molecular Probes, OR). Primers were designed using the MacVector software (Oxford Molecular Ltd.: primers sequences are available upon request). PCR were performed in 25 μl containing […] of each primer, 0.5×SYBR Green I (Molecular Probes), and 1 μl of cDNA. Fifty cycles consisting of 95° C. for 30 sec., 55° C. for 30 sec., 72° C. for 30 sec., and 79° C. for 5 sec. were performed. Primer dimers were melted at 79° C. before measuring the fluorescent signals after each cycle. The mRNA expression level for each gene was normalized against that of the GAPDH gene. The relative values were calculated by setting the normalized value of control as 1.
On the technique in general: Real-time PCR tracks product formation cycle by cycle.

Assay [3] concerns H9 cells. The assay is described as follows: MGE derivation from differentiating hPSCs (Nkx2.1 immunocytochemistry, cell counting, FACS). In kind it is cell-based, human.
Assay [4] relates to voltage-gated Na+ channels. In kind it is cell-based, human.
The mark [5] stands for this setting: SHH activation during early differentiation.

For the molecule `Cc1ccc2nc(NC(=O)CSc3nc4c(c(=O)n3-c3ccccc3)SCC4)sc2c1` [IWP2], the MGE specification in the assay with H9 cells [1] was found to be 5.16%.
In the case of `NS(=O)(=O)c1cccc2c1c([N+](=O)[O-])cc1nc(O)c(O)nc12` [NBQX], the “inhibition of spontaneous excitatory postsynaptic currents” value in assay [2] was “inhibited sEPSC completely”.
With `CNC1CCC(N(Cc2cccc(-c3ccncc3)c2)C(=O)c2sc3ccccc3c2Cl)CC1` (stereo not drawn) [SAG], the “expression of isl1” value with H9 cells [1] (10 nM vs 100 nM SAG) was “no significant difference”. Also, the “induction of the MGE phenotype” value with H9 cells [1] (100 nM SAG, H9 cells, 25 days of differentiation) was “significantly higher induction of the MGE phenotype”. The same molecule showed an MGE specification in the assay on H9 cells [1] of 0.79%. In the assay on differentiating ES cells (setting [5]), the Gli1 expression entry is reported as “strong induction of Gli1” and the Gli3 expression entry is “strong Gli3 expression reduction”. For the same molecule, in the assay with differentiating ES cells (early SHH activation), the FGF15/19 expression entry was “induced the expression of FGF15/19”. The MGE specification entry in the assay with H9 cells [3] (10 nM SAG, H9 cells, 25 days of differentiation) is “modest increase in MGE specification”. For the same molecule, the “Nkx2.1 level / MGE derivation” value in the assay on H9 cells [3] (SAG treatment in the 3rd week of differentiation) is “increased Nkx2.1 level mildly but significantly; also recorded: further enhanced MGE derivation”.
Regarding `NC1=N[C@H](O)[C@H]2[C@H]3O[C@]4(O)O[C@@H]([C@@H](O)[C@@]2(N1)[C@@H]4O)[C@]3(O)CO` [tetrodotoxin], the “block of transient (rapidly desensitizing) inward currents” value in assay [4] was “completely blocked; also recorded: selectively blocked transient component”.
As for “FGF19: exogenously applied FGF19, caudalizing signal”, in the assay with H9 cells [1], the “Nkx2.2+/total cells” value was 4.19+0.77%. The FGF8 expression result in the assay with differentiating ES cells (exogenous application of FGF19) is listed as “no effect on FGF8 expression; also recorded: does not affect FGF8 expression”. Besides, the CGE identity result in the assay on H9 cells [3] (FGF19 applied exogenously instead of FGF8, 3 weeks of differentiation) is recorded as “most of the cells taking up CGE identity; also recorded: induces CGE phenotype”.

B1: FGF8: fibroblast growth factor 8 protein (SEQ ID NO: 1), activator of FGF8 signaling (protein, listed as Homo sapiens)
chain: MAEDGDPFAKLIVETDTFGSRVRVRGAETGLYICMNKKGKLIAKSNGKGKDCVFTEIVLENNYTALQNAKYEGWYMAFTRKGRPRKGSKTRQHQREVHFMKRLPRGHHTTEQSLRFEFLNYPPFTRSLRGSQRTWAPEPR
For the molecule B1, the “MGE cells by FACS” value in the assay with H9 cells [1] (early SHH activation with exogenous FGF8, multiple hPSCs) was above 80%. Moreover, the “Nkx2.2+/total cells” value with H9 cells [1] is 0.61+0.38%. Also, the “MGE differentiation vs CGE differentiation” value in the assay on H9 cells [1] (treatment in the 2nd and/or 3rd week of differentiation) is recorded as “significantly increased MGE differentiation at the expense of CGE differentiation; also recorded: further induced MGE phenotype at the expense of the CGE phenotype; also recorded: induces MGE phenotype”. The FGF19 expression result with differentiating ES cells (exogenous application of FGF8) is “increase FGF19 expression mildly but significantly; also recorded: increases FGF19 expression”.
